Source: PubChem BioAssay (NCI)
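GI50 marks 50% less growth. TGI is the concentration that stops growth completely.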

What was measured:
Assay in all cases: NCI-60 cell line screen, 384-well format
[1] = test system: KM12 colon
[2] = test system: UO-31 renal
[3] = test system: NCI-H322M lung
[4] = test system: MDA-MB-231 breast
[5] = test system: OVCAR-3 ovarian
[6] = test system: PC-3 prostate
[7] = test system: 786-0 renal
[8] = test system: SK-MEL-2 melanoma
[9] = test system: LOX IMVI melanoma
[10] = test system: SW-620 colon
[11] = test system: OVCAR-4 ovarian
[12] = test system: NCI-H522 lung
[13] = test system: SK-OV-3 ovarian

## Cc1cc(Nc2cc(N)ncn2)c(=O)n2c1C(=O)NC21CCCCC1
[1]
  GI50: > 100 µM
  TGI: > 100 µM
[2]
  GI50: > 100 µM
  TGI: > 100 µM
[3]
  GI50: > 100 µM
  TGI: > 100 µM
[4]
  GI50: > 100 µM
  TGI: > 100 µM
[5]
  GI50: > 100 µM
  TGI: > 100 µM
[6]
  GI50: > 100 µM
  TGI: > 100 µM
[7]
  GI50: > 100 µM
  TGI: > 100 µM
[8]
  GI50: > 100 µM
  TGI: > 100 µM
[9]
  GI50: > 100 µM
  TGI: > 100 µM
[10]
  GI50: > 100 µM
  TGI: > 100 µM
[11]
  GI50: > 100 µM
  TGI: > 100 µM
[12]
  GI50: > 100 µM
  TGI: > 100 µM
[13]
  GI50: > 100 µM
  TGI: > 100 µM
